Assay results published in the NIST ThermoML archive (doi:10.1021/je200195q).
± gives the expanded uncertainty stated by the source.

Assay: activity coefficient (dimensionless); of the first substance listed, at infinite dilution; xn = mol fraction of the nth substance listed
Conditions: 101 kPa, Liquid, Chromatography, x1 = 0

Structure (SMILES)	activity coefficient (323.1 K)	activity coefficient (333.15 K)	activity coefficient (343.15 K)	activity coefficient (312.8 K)	activity coefficient (332.85 K)	activity coefficient (354.65 K)	activity coefficient (322.55 K)	activity coefficient (342.75 K)	activity coefficient (362.65 K)	further results
Cc1ccccc1C [1,2-dimethylbenzene] + CCCCCCCCCCn1cc[n+](CCCCCCCCCC)c1C.O=S(=O)([N-]S(=O)(=O)C(F)(F)F)C(F)(F)F	0.626 ± 0.043	0.616 ± 0.043	0.603 ± 0.042							
Cc1ccccc1C [1,2-dimethylbenzene] + CCCCCC[n+]1ccn(C)c1.FC(F)(F)C(F)(F)[P-](F)(F)(F)(C(F)(F)C(F)(F)F)C(F)(F)C(F)(F)F				0.888 ± 0.057	0.947 ± 0.06	0.957 ± 0.06				
Cc1ccccc1C [1,2-dimethylbenzene] + CCCCn1cc[n+](C)c1.O=S(=O)([N-]S(=O)(=O)C(F)(F)C(F)(F)F)C(F)(F)C(F)(F)F							1.87 ± 0.13	1.89 ± 0.13	1.97 ± 0.13	
Cc1cccc(C)c1 [1,3-dimethylbenzene] + CCCCCCCCCCn1cc[n+](CCCCCCCCCC)c1C.O=S(=O)([N-]S(=O)(=O)C(F)(F)F)C(F)(F)F	0.645 ± 0.044	0.653 ± 0.045	0.663 ± 0.045							
Cc1cccc(C)c1 [1,3-dimethylbenzene] + CCCCCC[n+]1ccn(C)c1.FC(F)(F)C(F)(F)[P-](F)(F)(F)(C(F)(F)C(F)(F)F)C(F)(F)C(F)(F)F				0.939 ± 0.059	0.997 ± 0.062	1.01 ± 0.063				
Cc1cccc(C)c1 [1,3-dimethylbenzene] + CCCCn1cc[n+](C)c1.O=S(=O)([N-]S(=O)(=O)C(F)(F)C(F)(F)F)C(F)(F)C(F)(F)F							2.02 ± 0.14	2.03 ± 0.14	2.09 ± 0.14	
Cc1ccc(C)cc1 [1,4-dimethylbenzene] + CCCCCCCCCCn1cc[n+](CCCCCCCCCC)c1C.O=S(=O)([N-]S(=O)(=O)C(F)(F)F)C(F)(F)F	0.647 ± 0.044	0.66 ± 0.045	0.657 ± 0.045							
Cc1ccc(C)cc1 [1,4-dimethylbenzene] + CCCCCC[n+]1ccn(C)c1.FC(F)(F)C(F)(F)[P-](F)(F)(F)(C(F)(F)C(F)(F)F)C(F)(F)C(F)(F)F				0.992 ± 0.062	1.03 ± 0.065	1 ± 0.063				
Cc1ccc(C)cc1 [1,4-dimethylbenzene] + CCCCn1cc[n+](C)c1.O=S(=O)([N-]S(=O)(=O)C(F)(F)C(F)(F)F)C(F)(F)C(F)(F)F							2.05 ± 0.14	2.03 ± 0.14	2 ± 0.14	
C1COCCO1 [1,4-dioxane] + CCCCCCCCCCn1cc[n+](CCCCCCCCCC)c1C.O=S(=O)([N-]S(=O)(=O)C(F)(F)F)C(F)(F)F	0.463 ± 0.036	0.46 ± 0.036	0.453 ± 0.036							
C1COCCO1 [1,4-dioxane] + CCCCCC[n+]1ccn(C)c1.FC(F)(F)C(F)(F)[P-](F)(F)(F)(C(F)(F)C(F)(F)F)C(F)(F)C(F)(F)F				0.273 ± 0.03	0.327 ± 0.032	0.339 ± 0.032				
C1COCCO1 [1,4-dioxane] + CCCCn1cc[n+](C)c1.O=S(=O)([N-]S(=O)(=O)C(F)(F)C(F)(F)F)C(F)(F)C(F)(F)F							0.429 ± 0.035	0.607 ± 0.042	0.576 ± 0.041	
C1COCCO1 [1,4-dioxane] + CCn1cc[n+](C)c1.CS(=O)(=O)[O-]										activity coefficient (312.55 K): 2.67 ± 0.18; activity coefficient (322.45 K): 2.67 ± 0.18; activity coefficient (332.45 K): 2.66 ± 0.18
C#CCCCCC [1-heptyne] + CCCCCCCCCCn1cc[n+](CCCCCCCCCC)c1C.O=S(=O)([N-]S(=O)(=O)C(F)(F)F)C(F)(F)F	1.06 ± 0.067	1.06 ± 0.067	1.06 ± 0.067							
C#CCCCCC [1-heptyne] + CCCCCC[n+]1ccn(C)c1.FC(F)(F)C(F)(F)[P-](F)(F)(F)(C(F)(F)C(F)(F)F)C(F)(F)C(F)(F)F				2.54 ± 0.17	2.5 ± 0.17	2.32 ± 0.16				
C#CCCCCC [1-heptyne] + CCCCn1cc[n+](C)c1.O=S(=O)([N-]S(=O)(=O)C(F)(F)C(F)(F)F)C(F)(F)C(F)(F)F							3.91 ± 0.27	3.76 ± 0.26	3.58 ± 0.24	
